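Exposure lasted 48 hours, with cells grown in 96-well plates and compounds tested at five concentrations. Abbreviation: GI50, concentration required for 50% inhibition of growth. TGI: total growth inhibition.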
How the values were obtained:
Test in all cases: inhibition of tumour cell growth, NCI panel, 48 h
SN12C renal = tested on: SN12C renal
COLO 205 colon = tested on: COLO 205 colon
TK-10 renal = tested on: TK-10 renal
786-0 renal = tested on: 786-0 renal
SW-620 colon = tested on: SW-620 colon
SK-OV-3 ovarian = tested on: SK-OV-3 ovarian
DU-145 prostate = tested on: DU-145 prostate
UO-31 renal = tested on: UO-31 renal
MDA-MB-435 = tested on: MDA-MB-435
SR leukemia = tested on: SR leukemia

Compound | GI50 (SN12C renal) [µM] | TGI (SN12C renal) [µM] | GI50 (COLO 205 colon) [µM] | TGI (COLO 205 colon) [µM] | GI50 (TK-10 renal) [µM] | TGI (TK-10 renal) [µM] | GI50 (786-0 renal) [µM] | TGI (786-0 renal) [µM] | GI50 (SW-620 colon) [µM] | GI50 (SK-OV-3 ovarian) [µM] | TGI (SK-OV-3 ovarian) [µM] | GI50 (DU-145 prostate) [µM] | GI50 (UO-31 renal) [µM] | TGI (UO-31 renal) [µM] | GI50 (MDA-MB-435) [µM] | TGI (MDA-MB-435) [µM] | TGI (SR leukemia) [µM] | TGI (SW-620 colon) [µM] | TGI (DU-145 prostate) [µM] | GI50 (SR leukemia) [µM]
Cc1cc(Cl)ccc1Nc1nc(C(F)(F)F)ccc1C(=O)N/N=C/c1ccc([N+](=O)[O-])cc1 | 2.92 | > 100 | 1.75 | 3.64 | 1.95 | 8.32 | 3.09 | > 40.9 | 1.07 | 2.16 | 7.27 | 1.78 | 1.48 | 6.93 | 2.45 | 7.69 |  |  |  | 
CC(=O)NC(CCCCNC(=O)NCCCl)C(=O)NCc1ccccc1 (configuration not stated) |  | > 100 |  | > 100 |  | > 100 |  | > 100 |  |  |  |  |  | > 100 |  |  | > 100 | > 100 |  | 
C/C(CCc1ccccc1)=N\NC(N)=S |  | > 100 |  | > 100 |  | > 100 |  | > 100 |  |  | > 100 |  |  | > 100 |  |  | > 100 | > 100 |  | 
NCCCCNc1ccc2c(=O)[nH][nH]c(=O)c2c1 |  | > 100 |  | > 100 |  | > 100 |  | > 100 |  |  | > 100 |  |  | > 100 |  |  | > 100 | > 100 |  | 
C[C@]12CCCC(=O)C1(O)C[C@H](C(=O)O)CC2 (some centres not stated) |  | > 100 |  | > 100 |  | > 100 |  | > 100 |  |  | > 100 |  |  | > 100 |  |  | > 100 | > 100 |  | 
COC(=O)C(CC(=O)Nc1ccc(C)cc1)C(=O)C(=O)Nc1ccccc1C(C)C (configuration not stated) |  | > 100 |  | > 100 |  | > 100 |  | > 100 |  |  | > 100 |  |  | > 100 |  |  | > 100 | 41.7 |  | 
Cc1cc(S(=O)(=O)NC#N)c(S/C(=N\Nc2ccc([N+](=O)[O-])cc2)c2ccc(Cl)cc2)cc1Cl | > 100 | > 100 | 15.2 | 30.7 | 25 | > 100 | 39.6 | > 100 | 21.1 | 17.9 | 57.6 | 17.6 | 34 | > 100 | 64.3 | > 100 |  | 52.1 | > 100 | 
COC(=O)C(=O)C(C(=O)C(=O)Nc1cccc(C(C)=O)c1)c1nc2ccccc2[nH]c1=O (configuration not stated) |  |  |  | > 100 |  | > 100 |  | > 100 |  |  | > 100 |  |  | > 100 |  |  |  | > 100 |  | 
Cc1cc(C)c(C(=O)c2no[n+]([O-])c2C(=O)c2c(C)cc(C)c(Br)c2C)c(C)c1Br |  | 33.4 |  | 31.4 |  | 26.5 |  | 32.8 |  |  | 52.3 |  |  | 20.2 |  |  | 8.42 | 26.9 |  | 
CN(C)CC1CCC/C1=N\O (configuration not stated) |  | > 100 |  | > 100 |  | > 100 |  | > 100 |  |  | > 100 |  |  | > 100 |  |  | > 100 | > 100 |  | 
CC(=O)OCC(OC(C)=O)C(OC(C)=O)C(OC(C)=O)C(=O)CNn1c(-c2ccccc2Cl)nc2ccccc2c1=O (configuration not stated) |  | > 100 |  | > 100 |  |  |  | > 100 |  |  | > 100 |  |  | > 100 |  |  | > 100 | > 100 |  | 
CCOC(=O)/C=C1\CCCC12OCCO2 |  | > 100 |  | > 100 |  | > 100 |  | > 100 |  |  | > 100 |  |  | > 100 |  |  | > 100 | > 100 |  | 
CCN(CC)C(=S)SC |  | > 100 |  | > 100 |  | > 100 |  | > 100 |  |  | > 100 |  |  |  |  |  |  | > 100 | > 100 | 
CC[O-].CC[O-].O=S(=O)([O-])c1ccc([O-])c2ncccc12.O=S(=O)([O-])c1ccc([O-])c2ncccc12.[Ti+4] | > 100 | > 100 | 83.2 | > 100 | > 100 | > 100 | 49 | > 100 | > 100 | > 100 | > 100 |  | 74.4 | > 100 |  |  |  | > 100 |  | 
Nc1ccccc1C#C/C=C\C#Cc1ccccc1 | 13.4 | 29.7 | 14.9 | 29.3 |  |  | 16.3 | 40.9 | 19.3 | 32 | 81.3 | 12.2 | 17.7 | 59.3 | 2.64 | 6.31 |  | 41.7 | 38.3 | 
CCOP(=O)(OCC)OC(C#N)c1ccc(-c2ccccc2)cc1 (configuration not stated) |  | 36.8 |  | 32.4 |  | 89.2 |  | 31.6 |  |  | 78.5 |  |  | > 100 |  |  | 59 | 26.8 |  | 
C/C(=N\N(c1ccccc1)c1ccccc1)c1c(O)cc(C)oc1=O |  | > 100 |  |  |  | > 100 |  | > 100 |  |  | > 100 |  |  | > 100 |  |  | > 100 | > 100 |  | 
COc1ccc2c(c1)/C(=C\c1c(Cl)[nH]c3ccc(OC)cc13)C(=O)N2 |  |  | 18.9 | 39.8 | 44 | > 100 | 43.7 | > 100 | 20 | 41.9 | > 100 | > 100 | 87.1 | > 100 | 33.7 | > 100 |  | 48.9 | > 100 | 
COC(=O)[C@]12CCC(C)[C@H](C)[C@H]1C1=CCC3[C@@]4(C)CC[C@H](OC(C)=O)C(C)(C)C4CC[C@@]3(C)C1(C)C(O)C2 (some centres not stated) |  | > 100 |  | > 100 |  | > 100 |  | > 100 |  |  | > 100 |  |  | > 100 |  |  | > 100 | > 100 |  | 
COC(=O)c1ccccc1NC(=O)C(=O)NNC(=O)c1ccncc1 |  | > 100 |  | > 100 |  | > 100 |  | > 100 |  |  | > 100 |  |  | > 100 |  |  | > 100 | > 100 |  | 
Cc1c(C(=O)NCCN2CCOCC2)cn2ncnc(Oc3ccc(NC(=O)Nc4ccc(Cl)c(C(F)(F)F)c4)cc3)c12 |  |  |  |  |  |  | 1.67 | 3.33 |  |  |  |  | 2.18 | 3.83 | 1.29 | 2.75 | 2.26 |  |  | 0.339

Source: PubChem BioAssay (NCI)
